Two compounds from patent US20240117005A1, “NOVEL BICYCLIC PEPTIDES” (THE COUNCIL OF THE QUEENSLAND INSTITUTE OF MEDICAL RESEARCH, priority 2021, published 2024) can be followed below.

Entries after “also recorded” stand apart in the source; their conditions may differ. No end group written: not given here. *: point of attachment. Myristyl = CCCCCCCCCCCCCC*

For assay [1], the system named is CSV, ABCB5, EGFR, FOXQ1, E-Cadherin in MDA-MB-231 cells. Briefly: High resolution digital pathology of mesenchymal/epithelial markers, MDA-MB-231. The format is cell-based, human. On the procedure: (§1) To examine the signature of CD8, CSV, EGFR, ABCB5, FOXQ1, commercial PD-L1-28-8, nuclear PD-L1, cytoplasmic PDL1 in MDA-MB-231 TNBC cells/TNBC brain cancer clone cells (untreated or treated with bicyclic inhibitors targeting nuclear PD-L1-PTM1). MDA-MB-231/MDA-MB-231-Br cells were permeabilised by incubating with 0.5% Triton X-100 for 15 min, blocked with 1% BSA in PBS and were probed with either CSV (Mouse host), CD8 (mouse host), EGFR (Rabbit host), ABCB5 (Goat Host), ALDH1A (Rabbit Host), NODAL (Goat Host), nuclear PDL1 (rabbit host), cytoplasmic PD-L1 (rabbit host) visualized with a donkey anti-rabbit AF 488, anti-mouse AF 568, donkey anti-goat 647. Cover slips were mounted on glass microscope slides with ProLong Glass Antifade reagent (Life Technologies). Protein targets were localised by digital pathology laser scanning microscopy. Single 0.5 μm sections were obtained using a ASI Digital pathology microscope using 100× oil immersion lens running ASI software. The final image was obtained by averaging four sequential images of the same section. Digital images were analyzed using automated ASI software (Applied Spectral Imaging, Carlsbad, CA) to determine the distribution and intensities automatically with automatic thresholding and background correction of the average nuclear fluorescence intensity (NFI), allowing for the specific targeting of expression of proteins of interest. Digital images were also analysed using ImageJ software (ImageJ, NIH, Bethesda, MD, USA) to determine the total cell fluorescence or cell surface only fluorescence for non-permeabilised cells. Digital images were analysed using ImageJ software (ImageJ, NIH, Bethesda, MD, USA) to determine either the Total Nuclear Fluorescent Intensity (TNFI), the Total Cytoplasmic Fluorescent Intensity (TCFI). ImageJ software with automatic thresholding and manual selection of regions of interest (ROIs) specific for cell nuclei was used to calculate the Pearson's co-efficient correlation (PCC) for each pair of antibodies. PCC values range from: −1=inverse of co-localisation, 0=no co-localisation, +1=perfect co-localisation. The Mann-Whitney nonparametric test (GraphPad Prism, GraphPad Software, San Diego, CA) was used to determine significant differences between datasets.
All breast cancer cell lines used were sourced from ATCC. MDA-MB-231 or MDB-MB-231-Br cell lines were maintained and cultured in DMEM (Invitrogen) supplemented with 10% FBS, 2 mM L-glutamine, and 1% PSN. […]
(§2) MDA-MB-231 were permeabilized and treated with either vehicle control or, DL-2 (current stock), or linear PDL1 (PDL1-L1). […] Significant differences are calculated as one-way ANOVA Kruskal-Wallis test comparison to vehicle control. […]

The next assay relates to PD-L1-Me3 (PD-L1-PTM2). Briefly: High resolution digital pathology of PD-L1-Me3 (PDL1-PTM2) localisation. As to conditions: for cytoplasmic expression of PDL1-PTM2 (PDL1-Me3): MDA-MB-231, vs vehicle control. The format is cell-based, human. On the procedure:
as §1
All breast cancer cell lines used were sourced from ATCC. MDA-MB-231 or MDB-MB-231-Br cell lines were maintained and cultured in DMEM (Invitrogen) supplemented with 10% FBS, 2 mM L-glutamine, and 1% PSN. MCF-7 cells were stimulated with 1.29 ng/mL phorbol 12-myristate 13-acetate (PMA) (Sigma-Aldrich) or 5 ng/ml recombinant TGF-β1 (R&D Systems) for 60 hours. For inhibitor studies, 2×10^5 cells were seeded in 2 mL complete media in 6 well plates and incubated overnight at 37° C./5% CO2. Cells were treated with PD-L1 bicyclic peptides targeting the nuclear axis PD-L1, HDAC2i or vehicle control. For qPCR analysis, at each time point, adherent cells were trypsinized, washed and cell pellets stored at −80° C. until further processing. For microscopy studies, 4×10^4 cells were seeded on coverslips and treated with inhibitors as described above. At each timepoint, coverslips were washed, fixed with 3.7% formaldehyde (Sigma) and stored at 4° C. until processing. […]
as §2

For the compound “LTFIFRLRKGRMMDVKK (Myristyl-LTFIFRLRKGRMMDVKK) [PDL1-L1, Myristyl- linear peptide, prototype]”, the “expression of mesenchymal marker CSV (CFI)” value in assay [1] (MDA-MB-231, vs vehicle control, listed as linear PDL1 peptide) is “reduce expression of CSV with far less significance; also recorded: able to reduce expression of CSV”. In the assay on PD-L1-Me3 (PD-L1-PTM2) (listed as linear PDL1 peptide), the “cytoplasmic expression of PDL1-PTM2 (PDL1-Me3)” value is “not able to induce any increased expression; also recorded: did not induce any increased expression”.

As for `CCCCCCCCCCCCCC(=O)NC(C)C(=O)NC1CSCc2cc3cc(c2)CSC[C@H](NC(=O)[C@H](Cc2ccccc2)NC(=O)[C@H](C(C)CC)NC(=O)[C@H](Cc2ccccc2)NC(=O)[C@H]([C@@H](C)O)NC(=O)C(CC(C)C)NC1=O)C(=O)N[C@@H](CCCNC(C)=N)C(=O)N[C@@H](CC(C)C)C(=O)N[C@@H](CCCNC(=N)N)C(=O)N[C@@H](CCCCN)C(=O)NCC(=O)N[C@@H](CCCNC(=N)N)C(=O)NC(C(=O)N[C@@H](CCSC)C(=O)NC(CCSC)C(=O)N[C@@H](CC(=O)O)C(=O)NC(C(=O)N[C@@H](CCCCN)C(=O)NC(CCCCN)C(=O)O)C(C)C)CSC3` (mixture of isomers) [DL-2], the “expression of the epithelial marker E-Cadherin” value in assay [1] (MDA-MB-231) is “able to induce expression”. Besides, in assay [1] (MDA-MB-231, vs vehicle control), the “expression of mesenchymal marker CSV (CFI)” value is reported as “inhibit” and the “mesenchymal stem-like resistant protein markers (CSV, ABCB5, EGFR, FOXQ1)” value is “significantly inhibit”. The “cytoplasmic expression of PDL1-PTM2 (PDL1-Me3)” value in the assay with PD-L1-Me3 (PD-L1-PTM2) is given as “induce increased cytoplasmic expression”. Moreover, the “expression of cell surface PD-L1-Me3” value in the assay with PD-L1-Me3 (PD-L1-PTM2) (non-permeabilized MDA-MB-231 cells) is “significant upregulation”. Moreover, in the assay with PD-L1-Me3 (PD-L1-PTM2) (permeabilized MDA-MB-231 cells), the “cytoplasmic/cell surface PD-L1-Me3” value is on record as “significantly upregulating” and the “expression of nuclear PD-L1-Me3” value is “abrogating”.
